Tests used:
[1] = molecular target: T1, paf receptors on neutrophils (PMN) (Homo sapiens, UniProt P25105); experiment: [^3H]paf binding to intact human neutrophils (PMN); settings: for [^3H]paf binding: 20° C., 30 min
T1 construct: Neutrophils (PMN) were prepared from venous blood (40 ml) from normal donors; endogenous in cells; host or cells: intact neutrophils (PMN) from venous blood of normal donors
Procedure: (§2) Neutrophils (PMN) were prepared from venous blood (40 ml) from normal donors, anticoagulated with citric acid dextrose (7:1, v/v) was sedimented for 30 to 45 min in gelatin 0.3% final (Plasmagel®). Twenty ml of supernatant were layered on 10 ml Ficoll Hypaque (d=1.077) and centrifuged (400×g, 20 min, 20° C.). The cell pellet containing PMN (95%) was resuspended in 500 μl Tyrode's buffer (pH=7.4). Erythrocyte lysis was performed by adding 3 volumes of distilled water for 40 sec. followed by 1 volume NaCl (3.5%, w/v). PMN were then washed twice in Tyrode's buffer (centrifugation at 370×g at 20° C. for 10 min). Cell concentration was adjusted to 5×10^7 per ml.
(§3) Binding studies were performed using, for example, intact neutrophils (PMN) or intact human blood eosinophils. PMN (2.5×10^6) or eosinophils (2.5×10^5) were suspended in 500 μl Tyrode's buffer supplemented with 1.3 mM CaCl2, 1 mM MgCl2 and 0.25% (v/v) fatty acid-free bovine serum albumin (BSA, w/v) were incubated with [^3H]paf (0.325-6.5 nM) either for 30 min at 20° C. or for 20 hrs at 4° C. Non-specific binding was assessed with the unlabeled ligands either paf (500 nM) or the receptor antagonist WEB 2086 (1 μM or 400 nM).
In a second set of experiments, [^3H]paf binding was performed by adding 3.25 nM [^3H]paf to PMN, simultaneously with low dose (5 to 50 nM) of paf, lyso paf, the enantiomer of paf or 2-lyso phosphatidylcholine (LPC) for 30 min at 20° C. [^3H]paf binding was also measured in the presence of the phorbol ester 4-phorbol-12-myristate-13-acetate (PMA, 1 to 16 nM) either added simultaneously with [^3H]paf or preincubated 15 min at 37° C. previously. […] After the binding procedure, cells were separated from their suspending medium by filtration in a millipore vacuum system with GF/C filters. Filters were washed with 10 ml Tyrode's buffer at 4° C. and radioactivity was assessed by scintillation. Cell-bound radioactivity on the filters after subtraction of blanks (filter-bound radioactivity in the absence of cells) was expressed in fmol [^3H]paf bound per 2.5×10^6 PMN or 2.5×10^5 eosinophils.

[2] = system: lyso paf receptors on neutrophils (PMN); experiment: [^3H]lyso paf binding to neutrophils (PMN); design: species or system human; settings: 20° C.
Procedure: as §2
The binding of [^3H]lyso paf (0.325-0.5 nM) was measured after 30 min incubation at 20° C. in the absence or presence of an excess of unlabeled lyso paf (500 nM), paf (500 nM) or WEB 2086 (1 μM). The effect of low dose paf (5 nM) on the binding of [^3H]lyso paf was also investigated. […] After the binding procedure, cells were separated from their suspending medium by filtration in a millipore vacuum system with GF/C filters. Filters were washed with 10 ml Tyrode's buffer at 4° C. and radioactivity was assessed by scintillation. Cell-bound radioactivity on the filters after subtraction of blanks (filter-bound radioactivity in the absence of cells) was expressed in fmol [^3H]paf bound per 2.5×10^6 PMN or 2.5×10^5 eosinophils.

[3] = molecular target: T2, paf receptors on eosinophils (Homo sapiens, UniProt P25105); experiment: [^3H]paf binding to intact human eosinophils; settings: for specific [^3H]paf binding: 20° C., 30 min
T2 construct: endogenous in cells; host or cells: intact human blood eosinophils (about 96% pure)
T2 sequence (P25105 whole entry): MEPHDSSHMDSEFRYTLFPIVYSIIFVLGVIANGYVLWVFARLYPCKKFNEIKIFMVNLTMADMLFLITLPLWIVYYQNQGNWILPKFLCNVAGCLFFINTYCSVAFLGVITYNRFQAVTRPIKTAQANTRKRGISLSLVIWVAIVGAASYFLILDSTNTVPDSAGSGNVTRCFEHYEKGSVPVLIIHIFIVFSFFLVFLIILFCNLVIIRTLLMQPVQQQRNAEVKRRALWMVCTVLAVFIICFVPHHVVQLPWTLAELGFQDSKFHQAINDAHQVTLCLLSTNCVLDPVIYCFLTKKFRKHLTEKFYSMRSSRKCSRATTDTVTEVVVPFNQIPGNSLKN
Procedure: Eosinophils were also prepared under sterile conditions. Blood (400 ml) was mixed with 10% (v/v) dextran. The supernatant was carefully deposited on a metrizoate/ficoll suspension (d=1.148) after sedimentation of red blood cells and centrifuged (400×g: 40 min). Erythrocyte lysis was performed by adding 3 v. of distilled water for 40 sec, followed by 1 v. NaCl (3.5%, w/v). Cells were suspended in 500 μl pH 7.4 Tyrode's buffer, centrifuged (1900 rpm×10 min) and resuspended (5×10^6 cells/ml) in Tyrode's (0.25% BSA) without Ca^2+. The eosinophils fraction at 1×10^6 cells/ml contained 96±5% eosinophils, 3±3% neutrophils, 1±2% mononuclear cells and no free platelets (mean±s.d., n=3).
as §3
Eosinophils were added to Tyrode's (0.25% BSA, 1.3 mM CaCl2, 1 mM MgCl2) containing [3H]paf (0.325-6.5 nM) in the absence or presence of unlabeled paf, lyso paf, enantio-paf or lyso-phosphatidylcholine (LPC) (5, 10, 50, 500 nM) and/or the specific paf receptor antagonist WEB 2086 (400 nM). After the binding procedure, cells were separated from their suspending medium by filtration in a millipore vacuum system with GF/C filters. Filters were washed with 10 ml Tyrode's buffer at 4° C. and radioactivity was assessed by scintillation. Cell-bound radioactivity on the filters after subtraction of blanks (filter-bound radioactivity in the absence of cells) was expressed in fmol [^3H]paf bound per 2.5×10^6 PMN or 2.5×10^5 eosinophils.

[4] = system: PMN; experiment: cytosolic free calcium (fura-2) in PMN; format: cell-based, human; settings: 1 to 500 nM; CaCl2 1.3 mM or EGTA 2 mM
Procedure: (§1) The concentration of cytosolic free calcium [Ca^2+]i was measured using the [Ca^2+]i indicator fura-2-acetoxymethyl ester (fura-2). […] The spectrofluorophotometer was programmed to shuttle between the two excitation wavelengths of 340 and 380 nm every 5 sec while keeping the emission wavelength of 505 nm. […] Background values were subtracted from all data. The intracellular Ca^2+ was calculated with the formula [[…] is KD of the fura-2 multiplied with the quotient of the fluorescence at 380 nm from the minimal and the maximal [Ca^2+]i fluorescence.

[5] = system: eosinophils; experiment: cytosolic free calcium (fura-2) in eosinophils; format: cell-based, human; settings: 1-100 nM; Ca^2+ free buffer, EGTA 2 mM
Procedure: as §1

[6] = system: eosinophils; experiment: paf metabolism by intact eosinophils; format: in vitro ADME, human; settings: binding conditions
Procedure: Cells were then separated by vacuum filtration and phospholipids were extracted. Briefly, filters were placed in 500 μl water. […] High pressure liquid chromatography (HPLC) was performed using standard procedure with dichloromethane/methanol/water (50:50.5, by vol) and eluted with a flow rate of 1 ml/min. The radioactivity was measured in the fractions after subtraction of the background values.

[7] = system: platelets; experiment: paf-mediated platelet aggregation; format: cell-based; settings: BSA […]; for EC50: Platelet, 0.05 h, 3 min aggregation
Procedure: (§4) Results are expressed as mean±S.D. or S.E. and statistics were performed using the “Mann Whitney” test (n=3, n=5 or n=6 as indicated).

[8] = system: human platelets; experiment: acetylhydrolase release from activated platelets; format: cell-based; settings: Thrombin 0.5 IU/ml; for acetylhydrolase release: Paf 500 nM
Procedure: as §4

[9] = system: acetylhydrolase; experiment: acetylhydrolase activity, kinetic constants; format: biochemical, human
Procedure: Acetylhydrolase activity was measured in lysates of resting platelets or platelets stimulated with thrombin (0.5 IU/ml, 1 min, 37° C.), in supernatants of thrombin-activated platelets with or without acid-treated (inactivation of acetylhydrolase) plasma and in native plasma. Samples were incubated for 10 min at 37° C. in the presence of 0.1 μCi [^3H]acetyl paf and concentrations of unlabeled paf varying from 5 to 35 μM. The microenvironment modulates the acetylhydrolase indicating the origin of plasma acetylhydrolase from activated platelets.

[10] = system: U 937 cells; experiment: cAMP levels of U 937 cells; format: cell-based
Procedure: U 937 cells were grown in stationary suspension culture in RPMI 1640 containing 10% fetal calf serum (FCS) and 2 mM L-glutamine at 37° C. in a humidified atmosphere of 5% CO2 and 95% air. The cells were diluted with fresh medium (1/10, v/v) twice a week. After three days in culture, U 937 cells were centrifuged (1000×G for 10 min) and incubated for 24 hrs in RPMI 1640 medium containing 10% CPSR 1 (delipidated FCS) and 2 mM L-glutamine. Subsequently the cells were incubated in the delipidated FCS medium containing cholesterol (10-60 μg/ml), as compared with solvent alone (ethanol, 0.5% v/v, final concentration) for (2, 4 or 24 hrs).
Cyclic AMP in supernatants from cholesterol-treated and control cells, were measured by the Rianen [^125I]cAMP-RIA Kit. Briefly, cholesterol (60 μg/ml, 24 hrs) or cholesterol vehicle (ethanol) were added after 24 hrs cell incubation in delipidated FCS medium. Cells were subsequently washed three times and resuspended (5×10^6, final concentration) in Hanks Hepes (HH)-buffer, pH 7.4 with ascorbinic acid (10 mM) and cAMP-phosphodiesterase inhibitor IBMX (1 mM). Cell suspension (100 μl) was added to 400 μl of the cAMP buffer for 30 min at 20° C. […] Values are from one experiment (representative of three) expressed as pmol cAMP per 10^6 cells. Total proteins were measured by standard procedure.

[11] = source of acetylhydrolase: (1) Platelets
[12] = source of acetylhydrolase: (2) Thrombin-activated platelets
[13] = source of acetylhydrolase: (3) Supernatant from (2)
[14] = source of acetylhydrolase: (4) Native plasma

T1 sequence (P25105 whole entry): as above

CCCCCCCCCCCCCCCCCCOC[C@H](COP(=O)([O-])OCC[N+](C)(C)C)OC(C)=O [paf, 1-octadecyl-2-acetyl-sn-glycero-3-phosphocholine]
Kd ([1]; 4° C.): 0.44 nM | binding sites (high affinity) on neutrophils ([1]; 4° C.): 3612 binding sites | [^3H]paf binding ([1]; Add. 5 nM, WEB 2086 1 μM): 376 ± 21 fmol [^3H]paf bound per 2.5×10^6 PMN | [^3H]paf binding ([1]; paf 5 nM, preincubation 0 min at 37° C.): 414 fmol [^3H]paf bound per 2.5×10^6 PMN | [^3H]paf binding ([1]; paf 5 nM, preincubation 15 min at 37° C.): 331 fmol [^3H]paf bound per 2.5×10^6 PMN | effect of excess unlabeled ligand on [^3H]paf binding ([1]; paf 500 nM, WEB 2086 1 μM): inhibited | effect of unlabeled ligand on [^3H]lyso paf binding ([2]; excess unlabeled paf or lyso paf 500 nM, WEB 2086 1 μM): increased | binding of […] [^3H]lyso paf ([2]; paf 5 nM, increased from 197.0±4.5): 255.0±10.5 fmol per 2.5×10^6 PMN | binding sites per eosinophil [3]: 8.6×10^4 sites per eosinophil | specific [^3H]paf binding, maximal plateau values ([3]; 20 hrs at 4° C., assessed with unlabeled paf 500 nM or WEB 2086 400 nM): 14.0±9.0 fmol per 2.5×10^5 cells | Kd ([3]; 20 hrs at 4° C., read-out: binding affinity (Kd) on eosinophils): 5.5 nM | specific [^3H]paf binding ([3]; addition 5 nM, WEB 2086 400 nM): 3.8 ± 5.0 fmol per 2.5×10^5 cells | specific [^3H]paf binding ([3]; addition 10 nM, WEB 2086 400 nM): 4.3 ± 2.9 fmol per 2.5×10^5 cells | specific [^3H]paf binding ([3]; addition 50 nM, WEB 2086 400 nM): 7.2 ± 5.4 fmol per 2.5×10^5 cells | specific [^3H]paf binding ([3]; addition 500 nM): 12.5 ± 6.9 fmol per 2.5×10^5 cells | cytoplasmic Ca^2+ flux in response to agonist [4]: concentration-dependent entry of Ca^2+ | [Ca^2+]i rise in response to agonist [5]: concentration-dependent elevation of [Ca^2+]i | metabolism of added paf [6]: did not metabolize | concentration for maximal aggregation ([7]; 20° C.): 2.6 ± 0.5 nM | concentration for maximal aggregation ([7]; 37° C.): 5.0 ± 0.5 nM | EC50 ([7]; 20° C.): 0.4 ± 0.1 nM | EC50 ([7]; 37° C.): 0.9 ± 0.2 nM | released of the total acetylhydrolase ([8]; paf 500 nM, mean±S.E., n=3): 10.3±1.5% | acetylhydrolase release ([8]; stimulation 0 sec): 1.0 ± 1.0 percentage of the total content of acetylhydrolase | acetylhydrolase release ([8]; stimulation 15 sec): 8.2 ± 3.2 percentage of the total content of acetylhydrolase | acetylhydrolase release ([8]; stimulation 30 sec): 7.8 ± 2.6 percentage of the total content of acetylhydrolase | acetylhydrolase release ([8]; stimulation 60 sec): 9.5 ± 4.0 percentage of the total content of acetylhydrolase | acetylhydrolase release ([8]; stimulation 120 sec): 10.0 ± 1.4 percentage of the total content of acetylhydrolase | acetylhydrolase release ([8]; stimulation 180 sec): 12.6 ± 3.8 percentage of the total content of acetylhydrolase | acetylhydrolase release ([8]; stimulation 300 sec): 10.3 ± 1.5 percentage of the total content of acetylhydrolase | Km [9, 11]: 8.3 ± 1.5 µM | Vmax [9, 11]: 0.3 nmol/min/mg prot. | Km [9, 12]: 10.6 ± 1.5 µM | Vmax [9, 12]: 0.3 nmol/min/mg prot. | Km [9, 13]: 7.9 ± 1.5 µM | Vmax [9, 13]: 1.4 nmol/min/mg prot. | Km [9, 14]: 5.3 ± 0.5 µM | Vmax [9, 14]: 1.4 nmol/min/mg prot. | cAMP in response to paf [10]: dose dependent fall in cAMP

— patent US20020127287A1, “Treatment of lyso paf-mediated disorders with lyso paf or paf antagonists and procedure for determining their efficacy” (priority 1990, published 2002)
